Data published in ChEMBL document CHEMBL5537195, “Novel Covalent Probe Selectively Targeting Glutathione Peroxidase 4 In Vivo: Potential Applications in Pancreatic Cancer Therapy” (J Med Chem, 2024).
The source made the active and inactive calls. The rule behind the calls is not given here.

Experiments:
CFPAC-1 = assay: Antiproliferative activity against human CFPAC-1 cells assessed as inhibition of cell growth incubated for 72 hrs by CCK-8 assay; type: functional, cell-based; conditions: CFPAC-1, 72 h
ASPC1 [1] = assay: Antitumor activity against human ASPC1 cells xenografted in NOD-SCID mouse assessed as reduction in tumor weight at 10 mg/kg, ip administered for 14 days; type: functional, organism-based; conditions: time 14.0 day
[2] = biological target: T1, Phospholipid hydroperoxide glutathione peroxidase GPX4 (Homo sapiens) (UniProt P36969); assay: Competitive binding affinity to GPX4 in human ASPC1 cells at 0.2 uM incubated for 1 hr in presence of 4-(((4-(benzo[d]thiazol-2-yl)phenyl)(methyl)amino)methyl)-N-ethynyl-N-methylbenzenesulfonamide by immunofluorescence based confocal microscopic analysis; type: cell-based
T1 sequence (whole entry): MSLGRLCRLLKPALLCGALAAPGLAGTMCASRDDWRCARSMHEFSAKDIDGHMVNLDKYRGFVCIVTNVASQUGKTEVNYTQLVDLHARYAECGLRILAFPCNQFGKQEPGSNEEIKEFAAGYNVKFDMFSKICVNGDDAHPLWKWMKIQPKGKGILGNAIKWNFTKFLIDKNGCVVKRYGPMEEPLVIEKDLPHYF

[3] = biological target: T1, Phospholipid hydroperoxide glutathione peroxidase GPX4 (Homo sapiens); assay: Competitive binding affinity to GPX4 in human ASPC1 cells at 0.2 uM incubated for 1 hr in presence of ML210 by immunofluorescence based confocal microscopic analysis; type: cell-based
[4] = biological target: T1, Phospholipid hydroperoxide glutathione peroxidase GPX4 (Homo sapiens); assay: Competitive binding affinity to GPX4 in human ASPC1 cells at 0.2 uM incubated for 1 hr in presence of 4-(((4-(benzo[d]thiazol-2-yl)phenyl)(methyl)amino)methyl)-N-ethynyl-N-methylbenzenesulfonamide; type: cell-based
ASPC1 [5] = assay: Induction of ferroptosis in human ASPC1 cells assessed as reduction in cell viability incubated for 24 hrs followed by compound washout by CCK-8 assay; type: functional, cell-based; conditions: ASPC1, 24 h
[6] = biological target: T1, Phospholipid hydroperoxide glutathione peroxidase GPX4 (Homo sapiens); assay: Binding affinity to GPX4 in human ASPC1 cells at 0.2 uM incubated for 1 hr in presence of 4-(((4-(benzo[d]thiazol-2-yl)phenyl)(methyl)amino)methyl)-N-ethynyl-N-methylbenzenesulfonamide by SDS-PAGE analysis; type: cell-based
[7] = biological target: T1, Phospholipid hydroperoxide glutathione peroxidase GPX4 (Homo sapiens); assay: Binding affinity to GPX4 in human ASPC1 cells at 0.2 uM incubated for 1 hr by immunofluorescence based confocal microscopic analysis; type: cell-based
ASPC1 [8] = assay: Induction of ferroptosis in human ASPC1 cells assessed as decrease in intracellular GSH level at 5 uM incubated for 5 hrs in absence of […]; type: functional, cell-based
ASPC1 [9] = assay: Induction of ferroptosis in human ASPC1 cells assessed as cell death at 2 uM in presence of 3-methyladenine; type: functional, cell-based
[10] = biological target: T1, Phospholipid hydroperoxide glutathione peroxidase GPX4 (Homo sapiens); assay: Binding affinity to GPX4 in human HPAF-II cells at 0.2 uM incubated for 1 hr by SDS-PAGE analysis; type: cell-based
ASPC1 [11] = assay: Induction of ferroptosis in human ASPC1 cells assessed as effect on ROS level at 1 uM incubated for 3 hrs in presence of […]; type: functional, cell-based
NCI-H522 = assay: Induction of ferroptosis in human NCI-H522 cells assessed as reduction in cell viability incubated for 72 hrs by CCK-8 assay; type: functional, cell-based; conditions: NCI-H522, 72 h
ASPC1 [12] = assay: Induction of ferroptosis in human ASPC1 cells assessed as reduction in cell viability incubated for 72 hrs by CCK-8 assay; type: functional, cell-based; conditions: ASPC1, 72 h
[13] = biological target: T1, Phospholipid hydroperoxide glutathione peroxidase GPX4 (Homo sapiens); assay: Competitive binding affinity to GPX4 (unknown origin) at 0.2 uM incubated for 5 hrs in presence of 4-(((4-(benzo[d]thiazol-2-yl)phenyl)(methyl)amino)methyl)-N-ethynyl-N-methylbenzenesulfonamide by pull-down based Western blot analysis
ASPC1 [14] = assay: Antitumor activity against human ASPC1 cells xenografted in NOD-SCID mouse assessed as reduction in tumor volume at 10 mg/kg, ip administered for 14 days; type: functional, organism-based; conditions: time 14.0 day
[15] = Half life in Sprague-Dawley rat at 2 mg/kg, iv measured upto 48 hrs by LC-MS/MS analysis; type: ADME, organism-based; conditions: in vivo
[16] = biological target: T1, Phospholipid hydroperoxide glutathione peroxidase GPX4 (Homo sapiens); assay: Binding affinity to GPX4 in human ASPC1 cells incubated for 1 hr by SDS-PAGE analysis; type: cell-based; conditions: dose 0.02-0.2 µM
[17] = biological target: T1, Phospholipid hydroperoxide glutathione peroxidase GPX4 (Homo sapiens); assay: Binding affinity to GPX4 in human ASPC1 cells at 0.2 uM incubated for 12 hr followed by compound washout by SDS-PAGE analysis; type: cell-based
ASPC1 [18] = assay: Induction of apoptosis in human ASPC1 cells at 20 to 200 nM incubated for 48 hrs by FITC based flow cytometry analysis; type: functional, cell-based; conditions: dose 20-200 nM
MIA PaCa-2 = assay: Antiproliferative activity against human MIA PaCa-2 cells assessed as inhibition of cell growth incubated for 72 hrs by CCK-8 assay; type: functional, cell-based; conditions: MIA PaCa-2, 72 h
[19] = Toxicity in NOD-SCID mouse xenografted with human ASPC1 cells assessed as mortality at 10 mg/kg, ip administered for once daily for 14 days; type: organism-based; conditions: in vivo, 336 h, time 14 day
Mus musculus = assay: In vivo target engagement at GPX4 in SCID mouse at 10 mg/kg, ip qd administered for 14 days and measured after 2 hrs by pull-down based Western blot analysis; type: functional, organism-based; conditions: time 14.0 day
HCT-116 = assay: Induction of ferroptosis in human HCT-116 cells assessed as reduction in cell viability incubated for 72 hrs by CCK-8 assay; type: functional, cell-based; conditions: HCT-116, 72 h
SW1990 = assay: Antiproliferative activity against human SW1990 cells assessed as inhibition of cell growth incubated for 72 hrs by CCK-8 assay; type: functional, cell-based; conditions: SW1990, 72 h
[20] = biological target: T1, Phospholipid hydroperoxide glutathione peroxidase GPX4 (Homo sapiens); assay: Binding affinity to GPX4 in human Panc1005 cells at 0.2 uM incubated for 1 hr by SDS-PAGE analysis; type: cell-based
[21] = biological target: T1, Phospholipid hydroperoxide glutathione peroxidase GPX4 (Homo sapiens); assay: Competitive binding affinity to GPX4 in human ASPC1 cells at 0.2 uM incubated for 1 hr in presence of ML162 by immunofluorescence based confocal microscopic analysis; type: cell-based
ASPC1 [22] = assay: Induction of ferroptosis in human ASPC1 cells assessed as reduction in cell viability incubated for 24 hrs by CCK-8 assay; type: functional, cell-based; conditions: ASPC1, 24 h
ASPC1 [23] = assay: Induction of ferroptosis in human ASPC1 cells with siRNA mediated GPX4 knockdown assessed as reduction in cell viability incubated for 72 hrs by CCK-8 assay; type: functional, cell-based
[24] = biological target: T1, Phospholipid hydroperoxide glutathione peroxidase GPX4 (Homo sapiens); assay: Binding affinity to GPX4 in human ASPC1 cells assessed as thermal stability at 10 uM at 43 to 64 degreeC for 3 mins by CETSA analysis; type: cell-based
PANC-1 = assay: Antiproliferative activity against human PANC-1 cells assessed as inhibition of cell growth incubated for 72 hrs by CCK-8 assay; type: functional, cell-based; conditions: PANC-1, 72 h
[25] = biological target: T1, Phospholipid hydroperoxide glutathione peroxidase GPX4 (Homo sapiens); assay: Binding affinity to GPX4 in human Hs766T cells at 0.2 uM incubated for 1 hr by SDS-PAGE analysis; type: cell-based
[26] = biological target: T1, Phospholipid hydroperoxide glutathione peroxidase GPX4 (Homo sapiens); assay: Binding affinity to GPX4 in human Capan-2 cells at 0.2 uM incubated for 1 hr by SDS-PAGE analysis; type: cell-based
[27] = biological target: T1, Phospholipid hydroperoxide glutathione peroxidase GPX4 (Homo sapiens); assay: Binding affinity to GPX4 in human MIA PaCa-2 cells at 0.2 uM incubated for 1 hr by SDS-PAGE analysis; type: cell-based
ASPC1 [28] = assay: Induction of ferroptosis in human ASPC1 cells assessed as reduction in cell viability incubated for 48 hrs by CCK-8 assay; type: functional, cell-based; conditions: ASPC1, 48 h

In the case of `C#CCN(Cc1ccc(S(=O)(=O)N(C)C#C)cc1)c1ccc(-c2nc3ccccc3s2)cc1`, the IC50 (CFPAC-1) is reported as 20 nM, the Activity (ASPC1 [1]) is reported as “Active” and the Activity [2] is reported as “inactive”. For the same molecule, the Activity [3] was “inactive”, the Activity [4] was “Active” and the IC50 (ASPC1 [5]) was 62 nM. The Activity [6] was “Active”, the Activity [7] was “Active” and the Activity (ASPC1 [8]) was “Active”. The Activity (ASPC1 [9]) was “inactive”, the Activity [10] was “Active” and the Activity (ASPC1 [11]) was “Active”. The IC50 (NCI-H522) was 3 nM, the IC50 (ASPC1 [12]) was 14 nM and the Activity [13] was “Active”. The Activity (ASPC1 [14]) was “Active”, the half-life [15] was 2.55 h and the Activity [16] was “Dose-Dependent Effect”. The Activity [17] was “Active”, the Activity (ASPC1 [18]) was “inactive” and the IC50 (MIA PaCa-2) was 20 nM. The Activity [19] was “Non-Toxic”, the Activity (Mus musculus) was “Active” and the IC50 (HCT-116) was > 10000 nM. For the same molecule, the IC50 (SW1990) was 20 nM, the Activity [20] was “Active” and the Activity [21] was “inactive”. For the same molecule, the IC50 (ASPC1 [22]) was 37 nM, the Activity (ASPC1 [23]) was “Active” and the Activity [24] was “Active”. For the same molecule, the IC50 (PANC-1) was 20 nM, the Activity [25] was “Active” and the Activity [26] was “inactive”. The Activity [27] was “Active” and the IC50 (ASPC1 [28]) was 26 nM.
